{"source": "patent US7045536B2", "about": "“Compound having anti-viral activity” (Industrial Technology Research Institute, priority 2003, dated 2006)", "key": {"RD cells": {"tested_on": "RD cells", "assay": "Toxicity test", "format": "cell-based", "details": "3-4 days, crystal violet OD570nm", "experimental": "In this embodiment, rhabdomyosarcoma (RD) cells obtained from the Virology Lab of Chang Gung Memorial Hospital are cultured in DMEM (Gibco) containing 10% fetal bovine serum and placed in 5% CO2, 37° C. incubator. In successive culture, the cells are rinsed twice with 1× PBS and then added with proper amount of 0.25% trypsin-EDTA (Gibco) for cell treatment. After the cells drop off from the surface of culture dish, add DMBM medium containing 10% fetal bovine serum to disperse the cells evenly in the culture dishes. Place the dishes into 5% CO2, 37° C. incubator to continue the culturing.\nIn this embodiment, cultured cells from Embodiment 3 are cultured in 96-well plate. After the cells are mixed with the tested compound for one hour, add DMEM containing 2% fetal bovine serum, and place the medium in 5% CO2, 35° C. incubator for 3–4 days. To read the test result, add 5% formalin to fixate for 1–2 hours and dye with 0.1% crystal violet (J. T. Baker) for 2–3 minutes. Rinse with water and measure OD570nm values."}, "enterovirus type 71": {"tested_on": "enterovirus type 71", "assay": "Neutralization test", "format": "cell-based, enterovirus 71/Tw/2231/98", "details": "concentration of 10 mg/ml; RD cells, crystal violet OD570nm", "experimental": "In this embodiment, enterovirus 71/Tw/2231/98 obtained from Virology Lab of Chang Gung Memorial Hospital is diluted with fetal bovine serum free culture medium. Culture the RD cells in DMEM containing 10% fetal bovine serum. When the cells are 90% cultured, wash with 1×PBC once and add the aforesaid diluted virus fluid into the culture medium. Place the medium in the 5% CO2, 35° C. incubator for inoculation for one hour and then add DMEM containing 2% fetal bovine serum. Place the medium in 5% CO2, 35° C. incubator. When over 95% of the cells become round and drop off, collect the supernatant. After centrifuge, freezing and thawing, refrigerate the virus supernatant under −80° C.\nIn this embodiment, cultured cells from Embodiment 3 are cultured in 96-well plate. After mixing fixed-quantity of virus fluid with the tested compound, add in culture medium for inoculation for one hour, and then add in DMEM containing 2% fetal bovine serum. Place the medium in 5% CO2, 35° C. incubator for 3–4 days. To read the test result, add 5% formalin to fixate for 1–2 hours and dye with 0.1% crystal violet for 2–3 minutes. Rinse with water and measure OD570nm values."}}, "data": [{"compound": "OC(C[n+]1ccccc1)C[n+]1ccccc1.[Br-].[Br-]", "note": "[dibromo 1,1′-glyceryl-bispyridine]", "values": [{"measurement": "LC50", "setting": "RD cells", "value": 9200, "unit": "µg/mL"}, {"measurement": "inhibitory effect on enterovirus type 71", "setting": "enterovirus type 71", "value": 30, "unit": "%"}]}, {"compound": "C[n+]1ccn(CC(O)Cn2cc[n+](C)c2)c1.[Br-].[Br-]", "note": "[dibromo 1,1′-glyceryl-bis (3-methyl-1H-imidazole)]", "values": [{"measurement": "LC50", "setting": "RD cells", "value": 8400, "unit": "µg/mL"}, {"measurement": "inhibitory effect on enterovirus type 71", "setting": "enterovirus type 71", "value": 32, "unit": "%"}]}]}
